Measured values reported in ChEMBL document CHEMBL3286376, “Design, synthesis and biological evaluation of hydroxy- or methoxy-substituted 5-benzylidene(thio) barbiturates as novel tyrosinase inhibitors” (Bioorg Med Chem, 2014).
Calls of active or inactive are those of the source. The rule behind the calls is not given here.

Legend:
[1] = target: T1, Tyrosinase (Agaricus bisporus, UniProt O42713)
T1 sequence (O42713 whole entry): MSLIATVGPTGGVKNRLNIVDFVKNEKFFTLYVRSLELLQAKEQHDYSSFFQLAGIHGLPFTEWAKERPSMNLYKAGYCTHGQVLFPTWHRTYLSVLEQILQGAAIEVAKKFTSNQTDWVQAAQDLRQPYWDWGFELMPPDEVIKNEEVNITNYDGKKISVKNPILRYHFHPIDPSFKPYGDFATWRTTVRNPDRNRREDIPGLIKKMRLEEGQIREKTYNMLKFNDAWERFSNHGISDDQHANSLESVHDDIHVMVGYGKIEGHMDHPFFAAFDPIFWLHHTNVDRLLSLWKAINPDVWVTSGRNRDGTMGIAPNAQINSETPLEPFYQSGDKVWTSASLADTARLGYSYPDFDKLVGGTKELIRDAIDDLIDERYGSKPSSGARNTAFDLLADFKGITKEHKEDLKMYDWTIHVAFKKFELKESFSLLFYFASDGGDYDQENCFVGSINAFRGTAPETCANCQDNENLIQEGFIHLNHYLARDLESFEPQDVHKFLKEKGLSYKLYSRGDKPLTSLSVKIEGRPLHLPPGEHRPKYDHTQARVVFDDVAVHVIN
Description: Inhibition of mushroom tyrosinase diphenolase activity using L-DOPA as substrate assessed as formation of DOPAchrome preincubated for 10 mins followed by substrate addition measured for 1 min

[2] = target: T2, Tyrosinase (Agaricus bisporus) (UniProt O42713); assay: Inhibition of mushroom tyrosinase diphenolase activity using L-DOPA as substrate assessed as formation of DOPAchrome at 100 uM preincubated for 10 mins followed by substrate addition measured for 1 min relative to control
T2 sequence (whole entry): T1 sequence (O42713 whole entry)

[3] = target: T2, Tyrosinase (Agaricus bisporus); assay: Irreversible inhibition of mushroom tyrosinase diphenolase activity assessed as oxidation of L-DOPA at 5 to 10 uM
[4] = target: T2, Tyrosinase (Agaricus bisporus); assay: Irreversible inhibition of mushroom tyrosinase diphenolase activity assessed as oxidation of L-DOPA at 1 to 2 uM

## O=C1NC(=S)NC(=O)C1=Cc1ccc(O)c(O)c1O
[1]
  IC50: 95.8 µM

## O=C1NC(=O)C(=Cc2ccccc2O)C(=O)N1
[2]
  inhibition: < 20%

## O=C1CC(=O)NC(=O)N1
[2]
  inhibition: < 20%

## COc1cc(C=C2C(=O)NC(=O)NC2=O)cc(OC)c1OC
[2]
  inhibition: < 20%

## O=C1NC(=S)NC(=O)C1=Cc1cc(O)c(O)c(O)c1
[1]
  IC50: 7.14 µM

## O=C1CC(=O)NC(=S)N1
[2]
  inhibition: < 20%

## COc1cc(C=C2C(=O)NC(=O)NC2=O)ccc1O
[1]
  IC50: 5.5 µM

## O=C1NC(=S)NC(=O)C1=Cc1ccc(O)c(O)c1
[3]
  inhibition: Active
[1]
  IC50: 6.1 µM

## O=C1NC(=S)NC(=O)C1=Cc1ccc(O)cc1O
[2]
  inhibition: < 20%

## O=C1NC(=S)NC(=O)C1=Cc1cccc(O)c1
[2]
  inhibition: < 20%

## O=C1NC(=O)C(=Cc2cccc(O)c2)C(=O)N1
[2]
  inhibition: < 20%

## O=Cc1ccc(O)c(O)c1
[2]
  inhibition: < 20%

## O=C1NC(=O)C(=Cc2cc(O)c(O)c(O)c2)C(=O)N1
[1]
  IC50: 5.51 µM

## O=C1NC(=O)C(=Cc2ccc(O)cc2O)C(=O)N1
[1]
  IC50: 17.2 µM

## COc1ccc(C=C2C(=O)NC(=O)NC2=O)cc1
[1]
  IC50: 100 µM

## COc1cc(C=C2C(=O)NC(=S)NC2=O)ccc1O
[1]
  IC50: 7.8 µM

## O=C1NC(=S)NC(=O)C1=Cc1ccccc1O
[2]
  inhibition: < 20%

## COc1ccc(C=C2C(=O)NC(=O)NC2=O)cc1O
[2]
  inhibition: < 20%

## O=C1NC(=O)C(=Cc2ccc(O)c(O)c2)C(=O)N1
[1]
  IC50: 1.52 µM
[4]
  inhibition: Active

## O=C1NC(=O)C(=Cc2ccc(O)c(O)c2O)C(=O)N1
[2]
  inhibition: < 20%

## COc1cc(C=C2C(=O)NC(=S)NC2=O)cc(OC)c1OC
[2]
  inhibition: < 20%

## O=C1NC(=O)C(=Cc2c(O)cc(O)cc2O)C(=O)N1
[2]
  inhibition: < 20%

## COc1ccc(C=C2C(=O)NC(=S)NC2=O)cc1O
[2]
  inhibition: < 20%

## COc1ccc(C=C2C(=O)NC(=S)NC2=O)cc1
[1]
  IC50: 70.1 µM

## O=C1NC(=S)NC(=O)C1=Cc1c(O)cc(O)cc1O
[2]
  inhibition: < 20%
